According to PMC6172411, “Development of a Quantitative Assay for the Characterization of Human Collectin-11 (CL-11, CL-K1)” (Frontiers in Immunology, 2018):

Assays:
[1] = target: T1, rCL-11 (recombinant collectin-11, CL-11, CL-K1) (Homo sapiens, UniProt Q9BWP8); test: co-precipitation with D-mannose-agarose (western blot) and solid-phase binding to coated D-mannose-BSA; conditions: Ca2+ required (no binding in EDTA or Mg-EGTA); D-mannose presented as immobilised agarose or BSA conjugate; room temperature
T1 construct: gene COLEC11; no tag stated; homomeric disulfide-linked oligomers of trimers, monomer ~34 kDa reduced

[2] = target: T1, rCL-11 (recombinant collectin-11, CL-11, CL-K1); test: solid-phase competition ELISA, inhibition of rCL-11 binding to coated mannan; conditions: Ca2+ (TBS-Tw-Ca, 2.5 mM CaCl2), rCL-11 1 ug/ml, mannan-coated plate, room temperature

T1 sequence (Q9BWP8 26-271): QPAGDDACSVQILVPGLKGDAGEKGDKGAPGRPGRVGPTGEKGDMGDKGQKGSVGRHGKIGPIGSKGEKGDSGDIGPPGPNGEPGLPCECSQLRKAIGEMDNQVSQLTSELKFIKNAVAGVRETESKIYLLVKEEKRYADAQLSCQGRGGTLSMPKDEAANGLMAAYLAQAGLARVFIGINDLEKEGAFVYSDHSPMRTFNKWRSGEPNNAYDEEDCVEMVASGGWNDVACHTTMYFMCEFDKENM

IC50 [2] | Structure (SMILES) | co-precipitation with D-mannose-agarose (western blot) and solid-phase binding t [1]
 | OC[C@H]1OC(O)[C@@H](O)[C@@H](O)[C@@H]1O (stereo partly drawn) [D-mannose] | bound to D-mannose and mannan in the presence of calcium
36.5 mM | C[C@@H]1OC(O)[C@@H](O)[C@H](O)[C@@H]1O (stereo partly drawn) [L-fucose] | 
